Read-outs that look alike come from different tables or passages of the source.
Legend:
[1] = target: human activated kallikrein enzyme (Homo sapiens, UniProt P03952); test: Inhibition of human activated plasma kallikrein, fluorogenic peptide substrate (PFR-AMC), 500 pM enzyme format; type: biochemical; conditions: 500 pM activated kallikrein, 30 min preincubation, 10 min reaction, room temperature, read-out: Primary Dose Response Assay: Average EC50
Method in brief: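 Enzyme at 500 pM with […] PFR-AMC in 20 mM Tris pH 7.5, 1 mM EDTA, 150 mM NaCl, 0.1% PEG-400, 0.1% Triton X-100. Inhibitor preincubated 30 min, then 10 min reaction at room temperature; AMC fluorescence read at 380 nm excitation/460 nm emission.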

plasma kallikrein = target: T1, plasma kallikrein (Homo sapiens, UniProt P03952); test: Neat human plasma assay (fluorogenic peptide), contact pathway-activated plasma; type: biochemical; conditions: read-out: Human Plasma Assay: IC90
T1 construct: from tissue; host or cells: sodium citrate collected human plasma
Method: To analyze inhibition of plasma kallikrein in an ex vivo setting, the potency of compounds was measure in contact pathway-activated plasma assays. In a fluorogenic peptide substrate assay, test compounds dissolved in DMSO were added to sodium citrate collected human or rat plasma in a 96-well microplate. Alternatively, citrated plasma was collected from rats administered the compounds orally or by IV. 10 nM of human FXIIa (Enzyme Research Laboratories) diluted in PKa buffer (20 mM Tris-HCl, pH 7.5, 150 mM NaCl, 1 mM EDTA, 0.100 PEG-8000, and 0.1% Triton X-100) was added to the plasma, followed by the 100 μM of the profluorescent, synthetic plasma kallikrein substrate PFR-AMC (also diluted in PKa buffer). Final plasma concentration in the reaction was […]. Fluorescence was immediately monitored by excitation/emission wavelengths of 360 nm/480 nm respectively over a period of 5 minutes in a microplate reader. The resulting linear increase in fluorescence emission (reflecting PKa proteolysis of PFR-AMC substrate) was fit to extract a proteolytic rate (fluorescent units over time), and this rate was subsequently plotted against compound inhibitor concentration. Resulting plots were fit to a standard 4-parameter IC50/C90 equation to determine min/max values, IC50/90, and slope. All experimental steps were performed at room temperature.

[2] = citrated human plasma, 10 nM human FXIIa activation, 100 μM PFR-AMC, room temperature

T1 sequence (P03952 391-638 limits assumed): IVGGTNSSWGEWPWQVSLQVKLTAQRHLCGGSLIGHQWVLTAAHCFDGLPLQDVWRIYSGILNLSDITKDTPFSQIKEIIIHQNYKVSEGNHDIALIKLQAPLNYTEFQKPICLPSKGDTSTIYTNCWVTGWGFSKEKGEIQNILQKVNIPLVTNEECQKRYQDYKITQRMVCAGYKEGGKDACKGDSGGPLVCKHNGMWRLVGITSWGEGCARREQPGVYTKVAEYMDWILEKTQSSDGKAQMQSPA
T1 sequence (P03952 20-390 partner limits assumed): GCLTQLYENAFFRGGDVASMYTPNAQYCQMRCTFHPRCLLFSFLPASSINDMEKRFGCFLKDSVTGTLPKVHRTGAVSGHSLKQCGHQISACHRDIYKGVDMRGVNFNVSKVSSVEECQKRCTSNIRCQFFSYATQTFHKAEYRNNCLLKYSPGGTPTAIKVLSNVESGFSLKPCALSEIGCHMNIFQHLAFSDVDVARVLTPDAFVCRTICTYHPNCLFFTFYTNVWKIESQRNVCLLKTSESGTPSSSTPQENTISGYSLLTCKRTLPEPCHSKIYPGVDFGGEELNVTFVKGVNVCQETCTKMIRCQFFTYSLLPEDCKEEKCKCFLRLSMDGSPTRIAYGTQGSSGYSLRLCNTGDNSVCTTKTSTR
human activated kallikrein enzyme, sequence (P03952 391-638 limits assumed): as the sequence (P03952 391-638 limits assumed) above
human activated kallikrein enzyme, sequence (P03952 20-390 partner limits assumed): as the sequence (P03952 20-390 partner limits assumed) above

For `O=C(Nc1cc(NCc2nc3ncc(C4CC4)cn3n2)ccn1)[C@@H]1C[C@]12CCc1ccc(Cl)cc12` (racemic) [Example 41, rac-(1S*,2S*)-6′-chloro-N-(4-(((6-cyclopropyl-[1,2,4]triazolo[1,5-a]pyrimidin-2-yl)methyl)amino)pyridin-2-yl)-2′,3′-dihydrospiro[cyclopropane-1,1′-indene]-2-carboxamide], the EC50 [1] was < 2.5 nM and the IC90 (plasma kallikrein; [2]) was 5000 to 65000 nM.
With `Cc1ccnc([C@H]2C[C@@H]2C(=O)Nc2cc(N(C)Cc3nc4cc(C5CC5)cc(N5CC(=O)N(C)C5=O)c4[nH]3)nc(C)n2)n1` [Example 86, (S,2S)—N-(6-(((5-cyclopropyl-7-(3-methyl-2,4-dioxoimidazolidin-1-yl)-1H-benzo[d]imidazol-2-yl)methyl)(methyl)amino)-2-methylpyrimidin-4-yl)-2-(4-methylpyrimidin-2-yl)cyclopropane-1-carboxamide] the EC50 [1] was < 2.5 nM and the IC90 (plasma kallikrein; [2]) was 500 to 5000 nM.
`N#Cc1ccc(Cl)cc1[C@H]1C[C@@H]1C(=O)Nc1cc(NCc2nc3ncc(C4CC4)cn3n2)ccn1` (racemic) [Example 42, rac-(1S*,2S*)-2-(5-chloro-2-cyanophenyl)-N-(4-(((6-cyclopropyl-[1,2,4]triazolo[1,5-a]pyrimidin-2-yl)methyl)amino)pyridin-2-yl)cyclopropane-1-carboxamide] was tested, and the EC50 [1] was < 2.5 nM and the IC90 (plasma kallikrein; [2]) was 500 to 5000 nM.
In the case of `Cc1ccnc([C@H]2C[C@@H]2C(=O)Nc2cc(N(C)Cc3cn4cc(C5CC5)nc(N5CCCC5=O)c4n3)ncn2)n1` [Example 85, (1S,2S)—N-(6-(((6-cyclopropyl-8-(2-oxopyrrolidin-1-yl)imidazo[1,2-a]pyrazin-2-yl)methyl)(methyl)amino)pyrimidin-4-yl)-2-(4-methylpyrimidin-2-yl)cyclopropane-1-carboxamide], the EC50 [1] is reported as < 2.5 nM and the IC90 (plasma kallikrein; [2]) is reported as < 500 nM.
With `CN1CCN(c2cc(C3CC3)nn3cc(CNc4cc(NC(=O)[C@H]5C[C@@H]5c5cccc(Cl)c5)ncn4)nc23)CC1` [Example 39, (1S,2S)-2-(3-chlorophenyl)-N-(6-(((6-cyclopropyl-8-(4-methylpiperazin-1-yl)imidazo[1,2-b]pyridazin-2-yl)methyl)amino)pyrimidin-4-yl)cyclopropane-1-carboxamide] the EC50 [1] was < 2.5 nM and the IC90 (plasma kallikrein; [2]) was 5000 to 65000 nM.
In the case of `Cc1ccnc([C@H]2C[C@@H]2C(=O)Nc2cc(NCc3cc(N4CC(=O)N(C)C4=O)c4ncc(C5CC5)cc4c3)ncn2)n1` [Example 98, (1S,2S)—N-(6-(((3-cyclopropyl-8-(3-methyl-2,4-dioxoimidazolidin-1-yl)quinolin-6-yl)methyl)amino)pyrimidin-4-yl)-2-(4-methylpyrimidin-2-yl)cyclopropane-1-carboxamide], the EC50 [1] is reported as < 2.5 nM and the IC90 (plasma kallikrein; [2]) is reported as < 500 nM.
`Cc1ccnc([C@H]2C[C@@H]2C(=O)Nc2nc(C)nc(OCc3cn4cc(C5CC5)nc(N5CC(=O)N(C)C5=O)c4n3)n2)n1` [Example 87, (1S,2S)—N-(4-((6-cyclopropyl-8-(3-methyl-2,4-dioxoimidazolidin-1-yl)imidazo[1,2-a]pyrazin-2-yl)methoxy)-6-methyl-1,3,5-triazin-2-yl)-2-(4-methylpyrimidin-2-yl)cyclopropane-1-carboxamide] was tested, and the EC50 [1] was < 2.5 nM and the IC90 (plasma kallikrein; [2]) was 500 to 5000 nM.
`O=C(Nc1cc(NCc2nc3ncc(C4CC4)cn3n2)ccn1)[C@H]1C[C@@H]1c1cccc(Cl)c1` [Example 31, (1S,2S)-2-(3-chlorophenyl)-N-(4-(((6-cyclopropyl-[1,2,4]triazolo[1,5-a]pyrimidin-2-yl)methyl)amino)pyridin-2-yl)cyclopropane-1-carboxamide] was tested, and the EC50 [1] was < 2.5 nM and the IC90 (plasma kallikrein; [2]) was 500 to 5000 nM.
`O=C(Nc1cc(N2C[C@@H](O)C[C@@H]2c2cn3nc(C4CC4)ccc3n2)ncn1)[C@H]1C[C@@H]1c1cccc(Cl)c1` [Example 60, (1S,2S)-2-(3-chlorophenyl)-N-(6-((2R,4S)-2-(6-cyclopropylimidazo[1,2-b]pyridazin-2-yl)-4-hydroxypyrrolidin-1-yl)pyrimidin-4-yl)cyclopropane-1-carboxamide] gave an EC50 [1] of 2.5 to 25 nM and an IC90 (plasma kallikrein; [2]) of 500 to 5000 nM.
In the case of `Cc1ccnc([C@H]2C[C@@H]2C(=O)Nc2cc(N3C[C@@H](O)C[C@@H]3c3ccc(N4CC5CC5C4)nc3)ncn2)n1` (relative stereo) [Example 71, rac-(1S*,2S*)—N-(6-((2R^•,4S)-2-(6-(3-azabicyclo[3.1.0]hexan-3-yl)pyridin-3-yl)-4-hydroxypyrrolidin-1-yl)pyrimidin-4-yl)-2-(4-methylpyrimidin-2-yl)cyclopropane-1-carboxamide], the EC50 [1] is reported as 2.5 to 25 nM and the IC90 (plasma kallikrein; [2]) is reported as 500 to 5000 nM.
`Cc1ccnc([C@H]2C[C@@H]2C(=O)Nc2cc(N(C)Cc3cn4cc(C5CC5)nc(N5CC(=O)N(C)C5=O)c4n3)ncn2)n1` [Example 83, (1S,2S)—N-(6-(((6-cyclopropyl-8-(3-methyl-2,4-dioxoimidazolidin-1-yl)imidazo[1,2-a]pyrazin-2-yl)methyl)(methyl)amino)pyrimidin-4-yl)-2-(4-methylpyrimidin-2-yl)cyclopropane-1-carboxamide] was tested, and the EC50 [1] was < 2.5 nM and the IC90 (plasma kallikrein; [2]) was < 500 nM.
With `Cc1ccnc([C@H]2C[C@@H]2C(=O)Nc2cc(OCc3cc4cc(C5CC5)cc(N5CC(=O)N(C)C5=O)n4n3)cnn2)n1` [Example 100, (1S,2S)—N-(5-((5-cyclopropyl-7-(3-methyl-2,4-dioxoimidazolidin-1-yl)pyrazolo[1,5-a]pyridin-2-yl)methoxy)pyridazin-3-yl)-2-(4-methylpyrimidin-2-yl)cyclopropane-1-carboxamide] the EC50 [1] was < 2.5 nM and the IC90 (plasma kallikrein) was < 500 nM.
`CN1CCN(c2cc(C3CC3)cc3cc(CNc4cc(NC(=O)[C@H]5C[C@@H]5c5cccc(Cl)c5)ncn4)nn23)CC1` [Example 53, (1S,2S)-2-(3-chlorophenyl)-N-(6-(((5-cyclopropyl-7-(4-methylpiperazin-1-yl)pyrazolo[1,5-a]pyridin-2-yl)methyl)amino)pyrimidin-4-yl)cyclopropane-1-carboxamide] was tested, and the EC50 [1] was < 2.5 nM and the IC90 (plasma kallikrein; [2]) was 500 to 5000 nM.
`O=C(Nc1cc(NCc2nc3ccc(C4CC4)nn3n2)ccn1)[C@H]1C[C@@H]1c1cccc(Cl)c1` [Example 29, (1S,2S)-2-(3-chlorophenyl)-N-(4-(((6-cyclopropyl-[1,2,4]triazolo[1,5-b]pyridazin-2-yl)methyl)amino)pyridin-2-yl)cyclopropane-1-carboxamide] was tested, and the EC50 [1] was 2.5 to 25 nM and the IC90 (plasma kallikrein; [2]) was 5000 to 65000 nM.
For `O=C(Nc1cc(N2C[C@@H](O)C[C@@H]2c2cn3cc(C4CC4)cnc3n2)ncn1)[C@H]1C[C@@H]1c1cc(Cl)ccn1` [Example 73, (1S,2S)-2-(4-chloropyridin-2-yl)-N-(6-((2R,4S)-2-(6-cyclopropylimidazo[1,2-a]pyrimidin-2-yl)-4-hydroxypyrrolidin-1-yl)pyrimidin-4-yl)cyclopropane-1-carboxamide], the EC50 [1] was < 2.5 nM and the IC90 (plasma kallikrein; [2]) was < 500 nM.
With `Cc1ccnc([C@H]2C[C@@H]2C(=O)Nc2nncc(N[C@H](C)c3cc4cc(C5CC5)cc(N5CC6CC6C5=O)n4n3)n2)n1` (stereo partly drawn) [Example 105, (1S,2S)—N-(5-(((1R^•)-1-(5-cyclopropyl-7-(2-oxo-3-azabicyclo[3.1.0]hexan-3-yl)pyrazolo[1,5-a]pyridin-2-yl)ethyl)amino)-1,2,4-triazin-3-yl)-2-(4-methylpyrimidin-2-yl)cyclopropane-1-carboxamide] the EC50 [1] was < 2.5 nM and the IC90 (plasma kallikrein; [2]) was < 500 nM.
